# According to patent US20230404969A1, “COMPOSITIONS AND METHOD FOR EFFECTIVE MANAGEMENT OF PERITONITIS” (priority 2022, published 2023):
# Where “and” joins values, the source holds several entries; their conditions need not be identical. Equal values may be shown once.
# What was measured:
# TNF-α = assay: Intracellular TNF-α estimation in LPS activated murine neutrophils (flow cytometry); format: cell-based; conditions: 5 μg/ml, LPS 1 μg/ml, 3 h, ↑ upregulation
# Description: Flowcytometric studies were carried out to determine the anti-inflammatory effect of active constituents of Withania somnifera extract on TNF-α and IL-1β cytokine expression in LPS activated murine neutrophils.
# TNF-α and Interleukin 1 beta (IL-1β) cytokines play a major role in the pathogenesis of septic shock induced by LPS (Lipopolysaccharide) endotoxin injection. LPS is an important triggering factor for in vivo systemic inflammatory response. LPS activates neutrophils via engagement of TLR4 (Toll-like receptor 4), resulting in the induction of a characteristic proinflammatory phenotype and prolongation of cell lifespan. In brief, neutrophils extraction was performed by taking murine blood and centrifuging it at 250 g for 20 min. Middle layer was taken and layered with histopaque and incubated for 10 min. The samples were centrifuged at 700 g, the upper layer was taken and Facs Lysing solution added for the lysis of any traces of RBC. The samples were washed with PBS (200 g) for 10 min. Neutrophils were stimulated with. LPS (1 μg/ml) and incubated with test samples for 3 h, in CO2 incubator. […] A fluorescence trigger was set on the […] parameter of the gated neutrophil populations (10,000 events). Fluorescence compensation, data analysis, and data presentation was performed using Cell Quest Pro software (Beckton—Dickinson Biosciences, CA, USA). […]
# [1] = test system: polymorphonuclear leukocytes, macrophages, lymphocytes; assay: Zymosan A induced peritonitis, acute study: intraperitoneal cellular influx; format: in vivo, BALB/c male mice; conditions: 2 mg/kg p.o (of 0.5, 1, 2, 4 mg/kg); 4, 12, 24 and 48 hrs after Zymosan A i.p.
# Description: Peritoneal inflammation was induced according to Doherty et al. in BALB/c male mice aged 6-8 weeks. Zymosan A (Sigma Chemical) was prepared freshly (2 mg/ml) in sterile, 0.9% w/v saline, and 0.5 ml was injected i.p. Zymosan A is a cell wall component of fungus, caused proliferative peritonitis with severe accumulation of inflammatory cells. At the selected time points 4, 12, 24 and 48 hrs, the peritoneal cavity was lavaged with 1.5 ml saline, and after a 30-s gentle manual massage, 0.5 ml exudate was retrieved, centrifuged at 3000 g for 3 min. 0.5 ml exudate was collected and used freshly for cell counts.
# IL-6 = assay: Cytometric Bead Array of peritoneal fluid, chronic zymosan peritonitis: IL-6; format: in vivo, mouse; conditions: 2 mg/kg, vs Zymosan control
# Description: (§1) Peritoneal inflammation was induced by Zymosan A (Sigma Chemical) (Masashi et al. Zymosan, but Not Lipopolysaccharide, Triggers Severe and Progressive Peritoneal Injury Accompanied by complement Activation in a Rat Peritonitis Model) was prepared freshly in sterile, 0.9% w/v saline, and 0.5 ml was injected i.p. from day 0 to Day 5. The lymphocyte population in the peripheral blood was determined with a flow cytometer. Cells were phenotyped by flow cytometry with the following primary antibodies: CD4 (FITC) and CD8 (PE). Cells were gated broadly on all live lymphocyte cells, with only debris and multiple cell clusters being excluded. Analysis of mean fluorescence intensity was done and percentage cell population was evaluated. […]
# (§2) The Cytometric Bead Array (Mouse Inflammation kit) was used to study cytokines in peritoneal fluid. […] Briefly, a mixture of 6 capture bead populations (50 μl) with distinct fluorescence intensities (detected in FL3) coated with antibodies specific for the above cytokines was mixed with each sample/standard (50 μl). […] Following acquisition of data by two colour cytometric analysis, the sample results were analysed using CBA software (BD Biosciences). […] Individual cytokine concentration ratios were indicated by their fluorescent intensities and was determined by interpolation from the corresponding standard curve.
# MCP-1 = assay: Cytometric Bead Array of peritoneal fluid, chronic zymosan peritonitis: MCP-1; format: in vivo, mouse; conditions: 2 mg/kg, vs Zymosan control
# Description: as §1, §2
# IL-12p70 = assay: Cytometric Bead Array of peritoneal fluid, chronic zymosan peritonitis: IL-12; format: in vivo, mouse; conditions: 2 mg/kg, vs Zymosan control
# Description: as §1, §2
# IL-10 = assay: Cytometric Bead Array of peritoneal fluid, chronic zymosan peritonitis: IL-10; format: in vivo, mouse; conditions: 2 mg/kg, vs Zymosan control
# Description: as §1, §2
# [2] = test system: Lactobacillus acidophilus (Gram positive); assay: Bacterial translocation from the gut into organs: L. acidophilus; format: in vivo; conditions: Withanone 2 mg/kg; positive/6 mice
# Description: (§3) Peritoneal inflammation was induced by Zymosan A (Sigma Chemical) (Masashi et al. Zymosan, but Not Lipopolysaccharide, Triggers Severe and Progressive Peritoneal Injury Accompanied by complement Activation in a Rat Peritonitis Model) was prepared freshly in sterile, 0.9% w/v saline, and 0.5 ml was injected i.p. from day 0 to Day 5. The lymphocyte population in the peripheral blood was determined with a flow cytometer. Cells were phenotyped by flow cytometry with the following primary antibodies: CD4 (FITC) and CD8 (PE). Cells were gated broadly on all live lymphocyte cells, with only debris and multiple cell clusters being excluded. Analysis of mean fluorescence intensity was done and percentage cell population was evaluated. The test drugs were administered for 30 days after the induction of peritonitis. On 36th day the peritoneal cavity was lavaged with 1.5 ml saline, and after a 30-s gentle manual massage, 0.5 ml exudate was retrieved, centrifuged at 3000 g for 3 min, and frozen at […] prior to cytokine and chemotactic-factor assessment.
# (§4) Intestine serves as a barrier in preventing gut bacteria and/or endotoxin from spreading to organs and tissues. It is also known that bacterial translocation occurs in critically ill or immunocompromised patients, and the physical disruption of mucosal barrier in vivo rodent models seem to be a key factor Tor translocation (Deitch et al. Effect of hemorrhagic shock on bacterial translocation, intestinal morphology, and intestinal permeability in conventional and antibiotic-decontaminated rats; Critical Care Medicine; 1990 18(5)). Bacterial translocation from the gut into the peritoneal cavity and organs was analyzed. The mesenteric lymph nodes, liver, and spleen of mice, study group of 30, were removed using sterile instruments. The organs were then homogenized in 1 ml of sterile cooked meat broth and 50 μl of organ homogenate was spread on blood agar plates to detect aerobic bacteria and Eosin Methylene blue agar plates to detect specially for E. coli. These plates were then incubated at 37° C. for 2 days. […]
# [3] = test system: Klebsiella pneumoniae (Gram-negative); assay: Bacterial translocation from the gut into organs: K. pneumoniae; format: in vivo; conditions: Withanone 2 mg/kg; positive/6 mice
# Description: as §3, §4
# [4] = test system: Proteus mirabilis (Gram-negative); assay: Bacterial translocation from the gut into organs: P. mirabilis; format: in vivo; conditions: Withanone 2 mg/kg; positive/6 mice
# Description: as §3, §4
# gut bacteria = assay: Bacterial translocation from the gut into organs: total of study group of 30; format: in vivo; conditions: Withanone 2 mg/kg; positive/30 mice
# Description: as §3, §4
smiles,measurement,setting,value
CC1=C(C)C(=O)O[C@@H]([C@@H](C)[C@@]2(O)CC[C@H]3[C@@H]4[C@@H]5O[C@@H]5[C@@]5(O)CC=CC(=O)[C@]5(C)[C@H]4CC[C@@]32C)C1 [Withanone],Percentage TNF-α inhibition compared to LPS control,TNF-α,53%
same,Inhibition of intraperitoneal cellular influx,[1],maximum effect in inhibiting cellular influx
same,Inhibition of IL-6,IL-6,61%
same,Inhibition of MCP-1,MCP-1,51%
same,Inhibition of IL-12,IL-12p70,53%
same,Inhibition of IL-10,IL-10,52%
same,"Bacterial translocation, Liver, L. acidophilus",[2],1/6
same,"Bacterial translocation, Mesenteric Lymph Nodes, L. acidophilus",[2],1/6
same,"Bacterial translocation, Spleen, L. acidophilus",[2],1/6
same,"Bacterial translocation, Liver, k. pneumonia",[3],0/6
same,"Bacterial translocation, Mesenteric Lymph Nodes, k. pneumonia",[3],0/6
same,"Bacterial translocation, Spleen, k. pneumonia",[3],1/6
same,"Bacterial translocation, Liver, p. mirabilis",[4],0/6
same,"Bacterial translocation, Mesenteric Lymph Nodes, p. mirabilis",[4],0/6
same,"Bacterial translocation, Spleen, p. mirabilis",[4],0/6
same,"Bacterial translocation, Liver, total",gut bacteria,3/30
same,"Bacterial translocation, Mesenteric Lymph Nodes, total",gut bacteria,5 out of 30 and 5/30
same,"Bacterial translocation, Spleen, total",gut bacteria,3/30
